Measurements from ChEMBL document CHEMBL1153181, “SAR of N-phenyl piperidine based oral integrin alpha5beta1 antagonists” (Bioorg Med Chem Lett, 2010).

Biological target: Integrin alpha-V/beta-3 (Homo sapiens, UniProt P05106+P06756)
Experiment: Inhibition of integrin […] receptor by ELISA
Assay type: protein-complex assay
Details: not given

Sequence of Integrin alpha-V/beta-3 (P05106 27-788 limits assumed): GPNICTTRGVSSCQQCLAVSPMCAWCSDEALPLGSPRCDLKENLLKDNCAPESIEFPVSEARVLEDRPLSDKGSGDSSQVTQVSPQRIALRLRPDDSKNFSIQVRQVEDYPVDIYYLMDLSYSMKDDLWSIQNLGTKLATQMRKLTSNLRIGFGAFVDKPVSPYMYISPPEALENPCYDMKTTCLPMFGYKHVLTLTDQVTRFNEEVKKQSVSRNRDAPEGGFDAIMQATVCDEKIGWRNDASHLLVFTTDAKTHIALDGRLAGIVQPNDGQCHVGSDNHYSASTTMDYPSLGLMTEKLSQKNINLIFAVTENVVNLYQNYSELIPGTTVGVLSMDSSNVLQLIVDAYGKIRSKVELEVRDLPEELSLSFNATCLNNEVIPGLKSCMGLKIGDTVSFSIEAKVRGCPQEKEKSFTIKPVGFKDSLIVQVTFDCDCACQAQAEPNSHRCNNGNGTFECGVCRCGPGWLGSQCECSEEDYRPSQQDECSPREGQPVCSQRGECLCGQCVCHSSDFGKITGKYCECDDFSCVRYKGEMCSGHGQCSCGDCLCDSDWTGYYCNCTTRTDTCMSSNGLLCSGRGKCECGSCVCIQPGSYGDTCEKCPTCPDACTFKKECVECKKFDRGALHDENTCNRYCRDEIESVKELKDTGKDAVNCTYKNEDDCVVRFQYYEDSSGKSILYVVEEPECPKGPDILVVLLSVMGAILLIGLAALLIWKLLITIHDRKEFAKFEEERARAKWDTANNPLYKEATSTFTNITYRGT
Sequence of Integrin alpha-V/beta-3 (P06756 31-889 limits assumed): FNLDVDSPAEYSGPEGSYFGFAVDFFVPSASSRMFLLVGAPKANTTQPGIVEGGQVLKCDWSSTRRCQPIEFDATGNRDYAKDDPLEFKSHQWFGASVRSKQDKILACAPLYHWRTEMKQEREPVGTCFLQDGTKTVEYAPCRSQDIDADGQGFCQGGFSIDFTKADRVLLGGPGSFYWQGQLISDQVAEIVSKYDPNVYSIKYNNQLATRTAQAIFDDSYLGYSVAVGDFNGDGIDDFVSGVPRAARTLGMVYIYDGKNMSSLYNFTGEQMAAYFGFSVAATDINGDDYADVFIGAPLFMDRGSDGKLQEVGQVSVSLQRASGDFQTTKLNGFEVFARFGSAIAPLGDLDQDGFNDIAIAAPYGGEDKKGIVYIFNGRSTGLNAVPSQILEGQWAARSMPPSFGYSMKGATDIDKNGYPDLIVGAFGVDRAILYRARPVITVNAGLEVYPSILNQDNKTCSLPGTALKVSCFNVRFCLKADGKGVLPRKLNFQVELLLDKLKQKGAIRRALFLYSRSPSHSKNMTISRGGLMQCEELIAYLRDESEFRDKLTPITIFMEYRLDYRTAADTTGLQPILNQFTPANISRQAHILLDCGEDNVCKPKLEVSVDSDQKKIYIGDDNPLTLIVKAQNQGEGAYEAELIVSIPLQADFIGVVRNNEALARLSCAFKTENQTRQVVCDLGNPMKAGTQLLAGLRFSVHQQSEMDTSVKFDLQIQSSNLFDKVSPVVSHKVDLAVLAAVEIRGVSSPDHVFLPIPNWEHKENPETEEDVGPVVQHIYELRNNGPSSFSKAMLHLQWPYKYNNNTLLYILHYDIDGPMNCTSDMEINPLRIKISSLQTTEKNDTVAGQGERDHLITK
Sequence of Integrin alpha-V/beta-3 (P06756 891-1048 limits assumed): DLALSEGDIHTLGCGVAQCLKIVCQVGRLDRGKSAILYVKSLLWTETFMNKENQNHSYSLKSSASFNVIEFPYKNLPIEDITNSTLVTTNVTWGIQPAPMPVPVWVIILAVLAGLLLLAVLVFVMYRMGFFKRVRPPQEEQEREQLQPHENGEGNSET

IC50 [nM] | SMILES
642 | Cc1cc(C)c(C(=O)NC(Cc2ccc(N3CCC(CNc4ccccn4)CC3)cc2)C(=O)O)c(C)c1 (stereo not given)
402 | Cc1cc(F)cc(C)c1C(=O)NC(Cc1ccc(N2CCC(CNc3ccccn3)CC2)cc1)C(=O)O (stereo not given)
89 | COc1ccnc(NCC2CCN(c3ccc(CC(NC(=O)c4c(C)cc(C)cc4C)C(=O)O)cc3)CC2)c1 (stereo not given)
1050 | CCc1cc(F)cc(C)c1C(=O)NC(Cc1ccc(N2CCC(CNc3ccccn3)CC2)cc1)C(=O)O (stereo not given)
239 | Cc1cccc(C)c1C(=O)NC(Cc1ccc(N2CCC(CNc3ccccn3)CC2)cc1)C(=O)O (stereo not given)
13.4 | O=C(O)[C@H](Cc1ccc(N2CCC(CNc3ccccn3)CC2)cc1)N1Cc2ccccc2C1=O
16600 | CCc1cc(F)cc(C)c1C(=O)N[C@H](Cc1ccc(N2CCC(CNc3ccccn3)CC2)cc1)C(=O)O
614 | CCc1cc(F)cc(C)c1C(=O)N[C@@H](Cc1ccc(N2CCC(CNc3ccccn3)CC2)cc1)C(=O)O
4.3 | O=C(N[C@@H](Cc1ccc(N2CCC(CNc3ccccn3)CC2)cc1)C(=O)O)c1ccccc1
648 | CCc1cccc(C)c1C(=O)NC(Cc1ccc(N2CCC(CNc3ccccn3)CC2)cc1)C(=O)O (stereo not given)

Tested on: not listed separately
Experiment: Oral bioavailability in rat at 10 mg/kg, po
Assay type: ADME, organism-based
Details: in vivo

bioavailability [%] | SMILES
24 | Cc1cc(C)c(C(=O)NC(Cc2ccc(N3CCC(CNc4ccccn4)CC3)cc2)C(=O)O)c(C)c1 (stereo not given)
6 | COc1ccnc(NCC2CCN(c3ccc(CC(NC(=O)c4c(C)cc(C)cc4C)C(=O)O)cc3)CC2)c1 (stereo not given)

Tested on: not listed separately
Experiment: Metabolic stability in human microsomes assessed as compound remaining at 1 uM after 1 hr
Assay type: ADME, Microsome
Details: read-out: Stability

remaining at 1 h, 1 µM [%] | SMILES
69 | Cc1cc(F)cc(C)c1C(=O)NC(Cc1ccc(N2CCC(CNc3ccccn3)CC2)cc1)C(=O)O (stereo not given)
105 | CCc1cc(F)cc(C)c1C(=O)NC(Cc1ccc(N2CCC(CNc3ccccn3)CC2)cc1)C(=O)O (stereo not given)
59 | Cc1cccc(C)c1C(=O)NC(Cc1ccc(N2CCC(CNc3ccccn3)CC2)cc1)C(=O)O (stereo not given)
52 | CCc1cccc(C)c1C(=O)NC(Cc1ccc(N2CCC(CNc3ccccn3)CC2)cc1)C(=O)O (stereo not given)

Tested on: not listed separately
Experiment: Elimination half life in Beagle dog at 10 mg/kg, iv administered as bolus dose
Assay type: ADME, organism-based, Canis lupus familiaris
Parameters: dose 10 mg/kg, route intravenous
Details: in vivo, read-out: beta t1/2

half-life [h] | SMILES
3.58 | CCc1cc(F)cc(C)c1C(=O)N[C@@H](Cc1ccc(N2CCC(CNc3ccccn3)CC2)cc1)C(=O)O

Tested on: not listed separately
Experiment: Systemic clearance in Beagle dog at 10 mg/kg, iv administered as bolus dose
Assay type: ADME, organism-based, Canis lupus familiaris
Parameters: dose 10 mg/kg, route intravenous
Details: in vivo

clearance [mL/min/kg] | SMILES
11 | CCc1cc(F)cc(C)c1C(=O)N[C@@H](Cc1ccc(N2CCC(CNc3ccccn3)CC2)cc1)C(=O)O

Biological target: T1, Integrin alpha-5/beta-1 (Homo sapiens, UniProt P05556+P08648)
Experiment: Inhibition of integrin alpha5beta1 receptor-mediated HEK293 cell adhesion
Assay type: cell-based
Details: not given

IC50 [nM] | SMILES
198 | Cc1cc(C)c(C(=O)NC(Cc2ccc(N3CCC(CNc4ccccn4)CC3)cc2)C(=O)O)c(C)c1 (stereo not given)
34 | COc1ccnc(NCC2CCN(c3ccc(CC(NC(=O)c4c(C)cc(C)cc4C)C(=O)O)cc3)CC2)c1 (stereo not given)
76 | CCc1cc(F)cc(C)c1C(=O)NC(Cc1ccc(N2CCC(CNc3ccccn3)CC2)cc1)C(=O)O (stereo not given)
6910 | CCc1cc(F)cc(C)c1C(=O)N[C@H](Cc1ccc(N2CCC(CNc3ccccn3)CC2)cc1)C(=O)O
21 | CCc1cc(F)cc(C)c1C(=O)N[C@@H](Cc1ccc(N2CCC(CNc3ccccn3)CC2)cc1)C(=O)O
69 | Cc1ccnc(NCC2CCN(c3ccc(CC(NC(=O)c4c(C)cc(C)cc4C)C(=O)O)cc3)CC2)c1 (stereo not given)

Biological target: T1, Integrin alpha-5/beta-1
Experiment: Inhibition of integrin alpha5beta1 receptor by ELISA
Assay type: protein-complex assay
Details: not given

IC50 [nM] | SMILES
2.1 | Cc1cc(C)c(C(=O)NC(Cc2ccc(N3CCC(CNc4ccccn4)CC3)cc2)C(=O)O)c(C)c1 (stereo not given)
2.7 | Cc1cc(F)cc(C)c1C(=O)NC(Cc1ccc(N2CCC(CNc3ccccn3)CC2)cc1)C(=O)O (stereo not given)
0.92 | COc1ccnc(NCC2CCN(c3ccc(CC(NC(=O)c4c(C)cc(C)cc4C)C(=O)O)cc3)CC2)c1 (stereo not given)
2 | CCc1cc(F)cc(C)c1C(=O)NC(Cc1ccc(N2CCC(CNc3ccccn3)CC2)cc1)C(=O)O (stereo not given)
1.6 | Cc1cccc(C)c1C(=O)NC(Cc1ccc(N2CCC(CNc3ccccn3)CC2)cc1)C(=O)O (stereo not given)
234 | O=C(O)[C@H](Cc1ccc(N2CCC(CNc3ccccn3)CC2)cc1)N1Cc2ccccc2C1=O
351 | CCc1cc(F)cc(C)c1C(=O)N[C@H](Cc1ccc(N2CCC(CNc3ccccn3)CC2)cc1)C(=O)O
0.9 | CCc1cc(F)cc(C)c1C(=O)N[C@@H](Cc1ccc(N2CCC(CNc3ccccn3)CC2)cc1)C(=O)O
70 | O=C(N[C@@H](Cc1ccc(N2CCC(CNc3ccccn3)CC2)cc1)C(=O)O)c1ccccc1
2.2 | CCc1cccc(C)c1C(=O)NC(Cc1ccc(N2CCC(CNc3ccccn3)CC2)cc1)C(=O)O (stereo not given)

Tested on: not listed separately
Experiment: Metabolic stability in rat microsomes assessed as compound remaining at 1 uM after 1 hr
Assay type: ADME, Microsome
Details: read-out: Stability

remaining at 1 h, 1 µM [%] | SMILES
85 | Cc1cc(C)c(C(=O)NC(Cc2ccc(N3CCC(CNc4ccccn4)CC3)cc2)C(=O)O)c(C)c1 (stereo not given)
62 | COc1ccnc(NCC2CCN(c3ccc(CC(NC(=O)c4c(C)cc(C)cc4C)C(=O)O)cc3)CC2)c1 (stereo not given)
77 | Cc1ccnc(NCC2CCN(c3ccc(CC(NC(=O)c4c(C)cc(C)cc4C)C(=O)O)cc3)CC2)c1 (stereo not given)

Tested on: not listed separately
Experiment: Total body clearance in rat at 1 mg/kg, iv
Assay type: ADME, organism-based
Parameters: dose 1 mg/kg, route intravenous
Details: in vivo

clearance [mL/min/kg] | SMILES
16 | Cc1cc(C)c(C(=O)NC(Cc2ccc(N3CCC(CNc4ccccn4)CC3)cc2)C(=O)O)c(C)c1 (stereo not given)
110 | COc1ccnc(NCC2CCN(c3ccc(CC(NC(=O)c4c(C)cc(C)cc4C)C(=O)O)cc3)CC2)c1 (stereo not given)

Biological target: Integrin alpha-V/beta-5 (Homo sapiens, UniProt P06756+P18084)
Experiment: Inhibition of integrin […] receptor by ELISA
Assay type: protein-complex assay
Details: not given

Sequence of Integrin alpha-V/beta-5 (P06756 31-889 limits assumed): as the sequence (P06756 31-889 limits assumed) above
Sequence of Integrin alpha-V/beta-5 (P06756 891-1048 limits assumed): as the sequence (P06756 891-1048 limits assumed) above
Sequence of Integrin alpha-V/beta-5 (P18084 24-799 limits assumed): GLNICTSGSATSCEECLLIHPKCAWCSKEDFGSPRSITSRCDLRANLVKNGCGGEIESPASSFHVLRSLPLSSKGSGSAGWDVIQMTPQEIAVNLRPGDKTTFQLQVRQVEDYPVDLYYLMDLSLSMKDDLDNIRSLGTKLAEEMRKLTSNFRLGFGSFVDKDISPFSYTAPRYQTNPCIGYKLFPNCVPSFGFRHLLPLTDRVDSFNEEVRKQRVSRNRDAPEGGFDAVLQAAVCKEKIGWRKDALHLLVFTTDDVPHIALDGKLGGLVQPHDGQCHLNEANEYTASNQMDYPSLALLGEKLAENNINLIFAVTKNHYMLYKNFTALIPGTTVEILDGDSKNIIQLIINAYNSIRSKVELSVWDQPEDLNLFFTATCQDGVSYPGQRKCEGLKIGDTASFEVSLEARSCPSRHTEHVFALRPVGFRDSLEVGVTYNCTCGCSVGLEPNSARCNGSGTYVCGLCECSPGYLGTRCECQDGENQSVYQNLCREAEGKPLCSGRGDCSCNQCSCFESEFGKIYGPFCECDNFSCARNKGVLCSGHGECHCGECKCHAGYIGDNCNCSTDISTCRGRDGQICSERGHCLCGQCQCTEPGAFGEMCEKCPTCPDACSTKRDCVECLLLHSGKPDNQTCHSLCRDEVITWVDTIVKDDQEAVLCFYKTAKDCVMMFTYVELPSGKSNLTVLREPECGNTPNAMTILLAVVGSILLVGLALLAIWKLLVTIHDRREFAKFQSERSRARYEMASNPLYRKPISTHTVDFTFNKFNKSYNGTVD

IC50 [nM] | SMILES
15000 | Cc1cc(C)c(C(=O)NC(Cc2ccc(N3CCC(CNc4ccccn4)CC3)cc2)C(=O)O)c(C)c1 (stereo not given)
8290 | Cc1cc(F)cc(C)c1C(=O)NC(Cc1ccc(N2CCC(CNc3ccccn3)CC2)cc1)C(=O)O (stereo not given)
3540 | COc1ccnc(NCC2CCN(c3ccc(CC(NC(=O)c4c(C)cc(C)cc4C)C(=O)O)cc3)CC2)c1 (stereo not given)
11700 | CCc1cc(F)cc(C)c1C(=O)NC(Cc1ccc(N2CCC(CNc3ccccn3)CC2)cc1)C(=O)O (stereo not given)
1870 | Cc1cccc(C)c1C(=O)NC(Cc1ccc(N2CCC(CNc3ccccn3)CC2)cc1)C(=O)O (stereo not given)
3320 | O=C(O)[C@H](Cc1ccc(N2CCC(CNc3ccccn3)CC2)cc1)N1Cc2ccccc2C1=O
15600 | CCc1cc(F)cc(C)c1C(=O)N[C@H](Cc1ccc(N2CCC(CNc3ccccn3)CC2)cc1)C(=O)O
12400 | CCc1cc(F)cc(C)c1C(=O)N[C@@H](Cc1ccc(N2CCC(CNc3ccccn3)CC2)cc1)C(=O)O
32.1 | O=C(N[C@@H](Cc1ccc(N2CCC(CNc3ccccn3)CC2)cc1)C(=O)O)c1ccccc1
11500 | CCc1cccc(C)c1C(=O)NC(Cc1ccc(N2CCC(CNc3ccccn3)CC2)cc1)C(=O)O (stereo not given)
10700 | Cc1ccnc(NCC2CCN(c3ccc(CC(NC(=O)c4c(C)cc(C)cc4C)C(=O)O)cc3)CC2)c1 (stereo not given)

Biological target: Integrin alpha-IIb/beta-3 (Homo sapiens, UniProt P05106+P08514)
Experiment: Inhibition of integrin alpha2bbeta3 receptor by ELISA
Assay type: protein-complex assay
Details: not given

Sequence of Integrin alpha-IIb/beta-3 (P05106 27-788 limits assumed): as the sequence (P05106 27-788 limits assumed) above
Sequence of Integrin alpha-IIb/beta-3 (P08514 32-887 limits assumed): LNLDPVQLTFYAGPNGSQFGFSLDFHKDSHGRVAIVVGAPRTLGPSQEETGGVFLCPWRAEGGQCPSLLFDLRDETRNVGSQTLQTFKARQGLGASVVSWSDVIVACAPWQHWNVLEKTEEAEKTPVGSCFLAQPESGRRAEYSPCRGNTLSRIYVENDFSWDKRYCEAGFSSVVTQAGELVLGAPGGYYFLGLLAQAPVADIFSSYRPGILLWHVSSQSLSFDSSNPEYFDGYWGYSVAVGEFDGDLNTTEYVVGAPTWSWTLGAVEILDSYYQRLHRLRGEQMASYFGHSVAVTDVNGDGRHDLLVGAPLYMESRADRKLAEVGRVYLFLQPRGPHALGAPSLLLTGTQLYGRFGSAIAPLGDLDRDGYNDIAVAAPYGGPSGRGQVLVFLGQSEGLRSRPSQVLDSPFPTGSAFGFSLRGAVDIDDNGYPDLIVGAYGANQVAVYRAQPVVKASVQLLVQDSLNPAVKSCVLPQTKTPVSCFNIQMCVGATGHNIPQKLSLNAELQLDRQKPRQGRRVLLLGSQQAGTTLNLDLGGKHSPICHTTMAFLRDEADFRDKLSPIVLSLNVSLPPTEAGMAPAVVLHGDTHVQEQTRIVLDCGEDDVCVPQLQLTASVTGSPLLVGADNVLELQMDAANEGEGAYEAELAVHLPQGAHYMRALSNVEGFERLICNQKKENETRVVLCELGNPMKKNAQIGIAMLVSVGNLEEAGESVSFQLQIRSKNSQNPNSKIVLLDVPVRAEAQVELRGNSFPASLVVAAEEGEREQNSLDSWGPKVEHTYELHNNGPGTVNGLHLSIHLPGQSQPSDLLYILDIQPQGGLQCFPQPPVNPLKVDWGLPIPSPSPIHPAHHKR
Sequence of Integrin alpha-IIb/beta-3 (P08514 891-1039 limits assumed): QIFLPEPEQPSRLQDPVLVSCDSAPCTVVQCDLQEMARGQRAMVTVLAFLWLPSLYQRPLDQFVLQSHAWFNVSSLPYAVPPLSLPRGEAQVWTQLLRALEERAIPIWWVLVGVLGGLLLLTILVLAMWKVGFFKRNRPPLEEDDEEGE

IC50 [nM] | SMILES
40200 | Cc1cc(C)c(C(=O)NC(Cc2ccc(N3CCC(CNc4ccccn4)CC3)cc2)C(=O)O)c(C)c1 (stereo not given)
105000 | Cc1cc(F)cc(C)c1C(=O)NC(Cc1ccc(N2CCC(CNc3ccccn3)CC2)cc1)C(=O)O (stereo not given)
71700 | CCc1cc(F)cc(C)c1C(=O)NC(Cc1ccc(N2CCC(CNc3ccccn3)CC2)cc1)C(=O)O (stereo not given)
77700 | Cc1cccc(C)c1C(=O)NC(Cc1ccc(N2CCC(CNc3ccccn3)CC2)cc1)C(=O)O (stereo not given)
76700 | O=C(O)[C@H](Cc1ccc(N2CCC(CNc3ccccn3)CC2)cc1)N1Cc2ccccc2C1=O
159000 | CCc1cc(F)cc(C)c1C(=O)N[C@H](Cc1ccc(N2CCC(CNc3ccccn3)CC2)cc1)C(=O)O
121000 | CCc1cc(F)cc(C)c1C(=O)N[C@@H](Cc1ccc(N2CCC(CNc3ccccn3)CC2)cc1)C(=O)O
14800 | O=C(N[C@@H](Cc1ccc(N2CCC(CNc3ccccn3)CC2)cc1)C(=O)O)c1ccccc1
87200 | CCc1cccc(C)c1C(=O)NC(Cc1ccc(N2CCC(CNc3ccccn3)CC2)cc1)C(=O)O (stereo not given)
23400 | Cc1ccnc(NCC2CCN(c3ccc(CC(NC(=O)c4c(C)cc(C)cc4C)C(=O)O)cc3)CC2)c1 (stereo not given)

Tested on: not listed separately
Experiment: Oral bioavailability in Beagle dog at 10 mg/kg administered as bolus dose
Assay type: ADME, organism-based, Canis lupus familiaris
Details: in vivo

bioavailability [%] | SMILES
11 | CCc1cc(F)cc(C)c1C(=O)N[C@@H](Cc1ccc(N2CCC(CNc3ccccn3)CC2)cc1)C(=O)O

Tested on: not listed separately
Experiment: Dissociation constant, pKa of the compound
Assay type: physicochemical
Details: not given

pKa | SMILES
7 | Cc1cc(C)c(C(=O)NC(Cc2ccc(N3CCC(CNc4ccccn4)CC3)cc2)C(=O)O)c(C)c1 (stereo not given)
7.7 | COc1ccnc(NCC2CCN(c3ccc(CC(NC(=O)c4c(C)cc(C)cc4C)C(=O)O)cc3)CC2)c1 (stereo not given)
7.5 | Cc1ccnc(NCC2CCN(c3ccc(CC(NC(=O)c4c(C)cc(C)cc4C)C(=O)O)cc3)CC2)c1 (stereo not given)

Tested on: Canis familiaris
Experiment: Hepatic blood flow in Beagle dog at 10 mg/kg, iv administered as bolus dose
Assay type: ADME, organism-based, Canis lupus familiaris, Liver
Parameters: dose 10 mg/kg, route intravenous
Details: in vivo

LBF [%] | SMILES
37 | CCc1cc(F)cc(C)c1C(=O)N[C@@H](Cc1ccc(N2CCC(CNc3ccccn3)CC2)cc1)C(=O)O
